Source: article PMC7177849, “Gut Microbial Catabolites of Tryptophan Are Ligands and Agonists of the Aryl Hydrocarbon Receptor: A Detailed Characterization” (International Journal of Molecular Sciences, 2020)
Read-outs that look alike come from different tables or passages of the source.

Columns and labels:
CYP1A1 mRNA = CYP1A1 mRNA (qRT-PCR) in intestinal LS180 cells; assay type: cell-based, human
Method: Figure 4 Effects of MICT on the induction of CYP1A1 mRNA in human hepatic and intestinal cells. Cultured cells were incubated for 24 h with the vehicle (DMSO; 0.1% v/v) and tested MICT in the presence or absence of TCDD (10 nM). RT-PCR determined the level of CYP1A1 mRNA, and the data were normalized per GAPDH mRNA level. […] (A,B) Experiments in three consecutive passages of human colon adenocarcinoma cell line LS180 in the absence (A) and the presence (B) of 10 nM TCDD. The bar graphs show the percentage of maximal induction attained by TCDD and are expressed as the mean ± SD. (C) Experiments in three consecutive passages of wild-type (AhR^+/^+) and AhR-knockout (AhR^−/^−) HT-29 cells. […] (D) Primary human hepatocytes from three different donors (LH79, Hep2201020, and Hep2201021).
Total RNA was isolated using TRI Reagent® (Sigma Aldrich, Prague, Czech Republic). cDNA was synthesized using M-MuLV reverse transcriptase (New England Biolabs, Ipswich, MA, USA). The reverse transcription was performed at 42 °C for 60 min using Random Primers 6 (New England Biolabs, Ipswich, MA, USA) and diluted in a 1:4 ratio by PCR-grade water. The quantitative reverse transcriptase-polymerase chain reaction (qRT-PCR) was performed on the Lightcycler 480 II using the LightCycler ® 480 Probes Master (Roche Diagnostic Corporation, Prague, Czech Republic). The levels of CYP1A1 and GAPDH mRNAs were determined using the Universal Probe Library probes (UPL; Roche Diagnostic Corporation, Prague, Czech Republic) in combination with specific primers, using a protocol described elsewhere. All measurements were performed in triplicates, and the gene expression was normalized to glyceraldehyde-3-phosphate dehydrogenase (GAPDH) as a house-keeping gene. The data were processed using the delta-delta Ct method and expressed as a fold induction over the negative control (DMSO) or as a percentage of the positive control (maximal induction by TCDD).

AhR-ARNT heterodimer = target: T1, AhR-ARNT heterodimer (Homo sapiens, UniProt P35869); assay: Protein co-immunoprecipitation, formation of AhR-ARNT heterodimer in LS180 cells; assay type: cell-based; details: 90 min
T1 construct: 0.1% V/V) for 90 min at 37 °C; host or cells: LS180 cells
Method: Figure 6 MICTs induce a formation of the AhR-ARNT heterodimer. Intestinal LS180 cells were incubated with TCDD, tested MICT, and vehicle (DMSO; 0.1% V/V) for 90 min. Protein co-immunoprecipitation of ARNT was carried out, as described in the Methods section. The representative immunoblots of immuno-precipitated protein eluates and total cell lysates are shown. The experiments were performed in two consecutive cell passages.
Intestinal LS180 cells were incubated with TCDD, tested MICT, and vehicle (DMSO; 0.1% V/V) for 90 min at 37 °C. The Pierce™ Co-Immunoprecipitation Kit (Thermo Fisher Scientific) with covalently coupled AhR antibody (mouse monoclonal, sc-133088, A-3, Santa Cruz Biotechnology) was used. Eluted protein complexes and total parental lysates were resolved on SDS-PAGE gels followed by Western Blot analysis and immuno-detection with ARNT-1 antibody (mouse monoclonal, sc-17812, G-3, Santa Cruz Biotechnology). Chemiluminescent detection was performed using horseradish peroxidase-conjugated anti-mouse secondary antibody (7076S, Cell Signaling Technology) and WesternSure® PREMIUM Chemiluminescent Substrate (LI-COR Biotechnology) by C-DiGit® Blot Scanner (LI-COR Biotechnology).

AhR = target: T2, AhR (Homo sapiens, UniProt P35869); assay: Reporter gene assay in AZ-AHR cells, antagonist analyses against TCDD, BaP, FICZ; details: for effect on AhR activation by BaP / effect on AhR activation by TCDD / antagonistic effect against full agonists / effect on AhR activation by FICZ: AZ-AHR cells, 24 h; for effect on AhR activation by BaP: BaP 15.8 µM; for effect on AhR activation by TCDD: TCDD 13.5 nM; for antagonistic effect against full agonists: TCDD, BaP and FICZ at EC80; for effect on AhR activation by FICZ: FICZ 22.6 µM
T2 sequence (P35869 11-848): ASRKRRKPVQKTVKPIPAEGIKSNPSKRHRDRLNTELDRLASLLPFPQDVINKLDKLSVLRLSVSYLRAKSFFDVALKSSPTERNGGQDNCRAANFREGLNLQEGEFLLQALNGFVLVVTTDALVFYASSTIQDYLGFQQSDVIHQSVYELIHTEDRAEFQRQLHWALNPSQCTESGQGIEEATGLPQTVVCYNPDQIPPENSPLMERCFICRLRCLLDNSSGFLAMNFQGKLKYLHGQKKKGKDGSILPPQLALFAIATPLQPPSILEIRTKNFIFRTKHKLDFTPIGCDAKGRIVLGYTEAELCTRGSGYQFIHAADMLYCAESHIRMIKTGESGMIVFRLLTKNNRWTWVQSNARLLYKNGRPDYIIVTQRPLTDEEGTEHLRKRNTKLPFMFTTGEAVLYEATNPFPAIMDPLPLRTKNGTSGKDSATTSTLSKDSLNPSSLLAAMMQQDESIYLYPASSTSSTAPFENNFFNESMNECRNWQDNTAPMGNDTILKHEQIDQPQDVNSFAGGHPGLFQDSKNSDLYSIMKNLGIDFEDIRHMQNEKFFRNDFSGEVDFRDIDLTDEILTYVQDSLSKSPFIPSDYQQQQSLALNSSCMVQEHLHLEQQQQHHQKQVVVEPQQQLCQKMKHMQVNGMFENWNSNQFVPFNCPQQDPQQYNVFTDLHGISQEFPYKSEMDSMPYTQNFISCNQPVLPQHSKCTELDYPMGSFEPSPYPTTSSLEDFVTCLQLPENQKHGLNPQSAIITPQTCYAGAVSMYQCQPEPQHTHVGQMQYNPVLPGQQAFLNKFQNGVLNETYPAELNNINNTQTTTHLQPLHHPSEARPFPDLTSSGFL
Method: In the first series of experiments, we evaluated the agonistic and antagonistic effects of MICT on the AhR activation. […] The antagonistic effects of MICT were evaluated against typical full agonists of the AhR, comprising TCDD, BaP, and FICZ, which were applied at fixed concentrations corresponding to their EC80.
AZ-AHR cells were incubated for 24 h with vehicle (DMSO; 0.1% v/v) and increasing concentrations of MICT, in the absence (agonist analyses) or the presence (antagonist analyses) of TCDD (13.5 nM), BaP (15.8 µM) and FICZ (22.6 µM). Following the treatments, we lysed cells, and luciferase activity was measured. Experiments were performed at least in four consecutive cell passages. Incubations were performed in quadruplicates (technical replicates). In agonist analyses, the data from a representative experiment, expressed as a fold induction of luciferase activity over control cells, are shown. In antagonist analyses, the data are a percentage of maximal induction, and they are the mean ± SD.
AZ-AHR cells were incubated for 24 h with vehicle (DMSO; 0.1% v/v) and increasing concentrations of tested MICT in the presence or absence of TCDD (13.5 nM), FICZ (22.6 µM), or BaP (15.8 µM). Then, cells were lysed, and luciferase activity was measured using the Tecan Infinite M200 plate luminometer (Schoeller Instruments, Czech Republic). The experiments were performed in at least four consecutive cell passages, and the treatments were in quadruplicates (technical replicates). The values of half-maximal effective concentration (EC50) for each MICT, and half-maximal inhibitory concentration (IC50—where appropriate) were calculated.

[1] = LS180 cells co-incubated with TCDD (10 nM), 24 h

T1 sequence (P27540 whole entry partner, one chain of several): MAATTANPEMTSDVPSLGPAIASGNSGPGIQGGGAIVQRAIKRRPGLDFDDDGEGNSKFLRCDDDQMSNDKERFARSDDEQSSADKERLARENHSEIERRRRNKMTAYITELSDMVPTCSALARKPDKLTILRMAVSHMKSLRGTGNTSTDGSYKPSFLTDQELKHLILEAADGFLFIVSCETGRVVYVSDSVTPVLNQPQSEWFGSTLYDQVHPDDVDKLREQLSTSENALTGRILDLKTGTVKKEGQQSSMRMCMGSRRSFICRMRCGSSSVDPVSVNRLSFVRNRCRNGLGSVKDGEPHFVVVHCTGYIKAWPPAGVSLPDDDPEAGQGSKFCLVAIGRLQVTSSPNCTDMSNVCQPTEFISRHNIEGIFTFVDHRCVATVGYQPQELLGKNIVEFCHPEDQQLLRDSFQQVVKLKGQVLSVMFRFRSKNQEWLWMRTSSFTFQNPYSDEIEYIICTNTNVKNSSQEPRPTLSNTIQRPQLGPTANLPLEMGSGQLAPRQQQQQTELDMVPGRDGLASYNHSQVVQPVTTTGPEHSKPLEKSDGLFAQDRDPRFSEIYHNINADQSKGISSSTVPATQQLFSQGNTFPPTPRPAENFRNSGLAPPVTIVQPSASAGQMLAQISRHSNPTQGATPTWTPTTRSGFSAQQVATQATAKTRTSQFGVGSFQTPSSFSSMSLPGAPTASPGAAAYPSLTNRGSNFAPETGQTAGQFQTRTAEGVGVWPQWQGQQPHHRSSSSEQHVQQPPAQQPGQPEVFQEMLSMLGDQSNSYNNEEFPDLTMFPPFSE

| SMILES | antagonistic effects on CYP1A1 mRNA (CYP1A1 mRNA; [1]) | induction of CYP1A1 mRNA (CYP1A1 mRNA; LS180 cells, 24 h) | formation of AhR-ARNT heterodimer (AhR-ARNT heterodimer) | effect on AhR activation by BaP (AhR) | effect on AhR activation by TCDD (AhR) | antagonistic effect against full agonists (AhR) | Antagonism (IC50) (AhR; Table 1 summary class) | IC50 (AhR) [µM] | effect on AhR activation by FICZ (AhR) | Antagonism (IC50) (AhR) | antagonistic effects on CYP1A1 mRNA (CYP1A1 mRNA) | induction of CYP1A1 mRNA (CYP1A1 mRNA) |
| --- | --- | --- | --- | --- | --- | --- | --- | --- | --- | --- | --- | --- |
| Cc1c[nH]c2ccccc12 [3MI, skatole] | antagonistic effects were observed primarily | strong induction | induce a formation of AhR-ARNT heterodimer | dose-dependently inhibited | dose-dependently inhibited | ligand-selective antagonism | ligand selective |  |  |  |  |  |
| O=Cc1c[nH]c2ccccc12 [IA, indole-3-aldehyde] | antagonistic effects were observed primarily |  |  |  |  | dose-dependent antagonistic effect | yes–all ligands | 100 to 200 |  |  |  |  |
| O=C(O)/C=C/c1c[nH]c2ccccc12 [IAC, indole-3-acrylate] | to a lesser extent | strong induction | induce a formation of AhR-ARNT heterodimer |  |  | no antagonistic effects | none |  |  |  |  |  |
| NC(=O)Cc1c[nH]c2ccccc12 [IAD, indole-3-acetamide] |  | strong induction | induce a formation of AhR-ARNT heterodimer | potentiated | antagonized |  |  |  | potentiated |  |  |  |
| OCCc1c[nH]c2ccccc12 [IET, indole-3-ethanol] |  |  |  |  |  | no antagonistic effects |  |  |  |  |  |  |
| O=C(O)C(O)Cc1c[nH]c2ccccc12 (centres unmarked) [ILA, indole-3-lactate] | to a lesser extent |  |  |  |  | no antagonistic effects |  |  |  | none |  |  |
| c1ccc2[nH]ccc2c1 [IND, indole] |  |  | induce a formation of AhR-ARNT heterodimer |  |  | dose-dependent antagonistic effect | yes–all ligands |  |  |  | antagonistic effects were observed primarily | strong induction |
| O=C(O)C(=O)Cc1c[nH]c2ccccc12 [IPY, indole-3-pyruvate] | antagonistic effects were observed primarily | strong induction | induce a formation of AhR-ARNT heterodimer | potentiated | antagonized |  | ligand selective |  | potentiated |  |  |  |
| NCCc1c[nH]c2ccccc12 [TA, tryptamine] |  | strong induction | induce a formation of AhR-ARNT heterodimer |  |  | dose-dependent antagonistic effect | yes–all ligands |  |  |  |  |  |
